Results taken from paper PMC5748433, “Study on the effect of EMD386088, a 5-HT6 receptor partial agonist, in enhancing the anti-immobility action of some antidepressants in rats” (Naunyn-Schmiedeberg's Archives of Pharmacology, 2017).

Tested on: rats
Assay: Open field (OF) test in rats, locomotor/exploratory activity
Type: in vivo, rat
Conditions: 5-min session, mean ± SEM
Procedure: All drugs were dissolved in distilled water immediately before administration in a volume of 2 mL/kg. All the compounds were administered intraperitoneally (i.p.). […] Control animals received vehicle according to the same schedule.
The experiment was performed using Motor Monitor System (Campden Instruments, Ltd., UK) consisted of two SmartFrame Open Field stations (40 × 40 × 38 cm) with 16 × 16 beams, located in sound attenuating chambers and connected to PC software by control chassis. Individual vehicle- or drug-injected animals were gently placed in the center of the station. An automated motor monitor system recorded ambulation (the number of crossings in X and Y axis), the number of rearing episodes, and total distance covered by a rat for 5 min.
The data of behavioral studies were evaluated using two-way analysis of variance (ANOVA) followed by Bonferroni’s post hoc test, p < 0.05 was considered significant.

[1] = 10 mg/kg i.p. (s-citalopram 30 min, moclobemide and bupropion 60 min before test)
[2] = 15 mg/kg i.p. 30 min before test

SMILES	Exploratory activity Ambulation X [1]	Exploratory activity Ambulation Y [1]	Exploratory activity Rearings [1]	Exploratory activity Total distance (cm) [1]	Exploratory activity Ambulation Y [2]	Exploratory activity Rearings [2]	Exploratory activity Total distance (cm) [2]
CC(NC(C)(C)C)C(=O)c1cccc(Cl)c1 (centres unmarked) [bupropion]	284 ± 31	301 ± 35	83 ± 9	3083 ± 229 cm			
CN(C)CCC[C@@]1(c2ccc(F)cc2)OCc2cc(C#N)ccc21 [s-citalopram]	197 ± 15	179 ± 19	64 ± 12				
O=C(NCCN1CCOCC1)c1ccc(Cl)cc1 [moclobemide]	200 ± 26	192 ± 23	62 ± 3	2160 ± 183 cm			
CN(C)CCCN1c2ccccc2CCc2ccccc21 [imipramine]					203 ± 41	54 ± 3	2212 ± 332 cm
